Assay results from US12685312B2, “Sulfonamide apyrase inhibitors” (Texas Crop Science, Inc., priority 2022, dated 2026).

These molecules were tested on apyrase (assay: Screen for apyrase inhibitors (Method 1, in vitro phosphate-release absorbance assay)). Conditions: inhibitor conc at 1 mM stock, 1 hr room temperature, absorbance 630 nm; rounded average of two assay results.
Type: biochemical
Procedure, shortened: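 Phosphate-release colorimetric assay (Windsor method) in 60 mM Hepes, 3 mM MgCl2, 3 mM CaCl2, 3 mM ATP, pH 6.5, with compound or DMSO control added. Released phosphate developed with ammonium molybdate and ascorbic acid/TCA, then stopped with citrate/acetic acid.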

**Q.** With COc1ccc([N+](=O)[O-])cc1NS(=O)(=O)c1cccc(C(=O)Nc2ccc(F)c([N+](=O)[O-])c2)c1 [I-430, N-(4-fluoro-3-nitrophenyl)-3-(N-(2-methoxy-5-nitrophenyl)sulfamoyl)benzamide] as the molecule, how does the “% Inhibition of Apyrase” value read?
**A.** 72%

**Q.** With O=C(Nc1cccc([N+](=O)[O-])c1)c1cccc(S(=O)(=O)NCc2ccccc2)c1 [I-50, 3-(N-benzylsulfamoyl)-N-(3-nitrophenyl)benzamide] as the molecule, how does the “% Inhibition of Apyrase” value read?
**A.** 10%

**Q.** Which “% Inhibition of Apyrase” value does the source give for Cc1ccc(N(C)S(=O)(=O)c2cccc(C(=O)N3c4ccccc4CC3C)c2)cc1 (stereo not drawn) [I-481, N-methyl-3-(2-methylindoline-1-carbonyl)-N-(p-tolyl)benzenesulfonamide] here?
**A.** 58%

**Q.** Cc1csc(NC(=O)c2cccc(NS(=O)(=O)c3ccc4c(c3)OCCCO4)c2)n1 [I-650, 3-((3,4-dihydro-2H-benzo[b][1,4]dioxepine)-7-sulfonamido)-N-(4-methylthiazol-2-yl)benzamide] was tested. Which “% Inhibition of Apyrase” value did it give?
**A.** 50%

**Q.** For COc1cccc(NC(=O)c2cccc(S(=O)(=O)Nc3ccc4c(c3)OCO4)c2)c1 [I-253, 3-(N-(benzo[d][1,3]dioxol-5-yl)sulfamoyl)-N-(3-methoxyphenyl)benzamide], which “% Inhibition of Apyrase” value is on record?
**A.** 61%

**Q.** With Cc1ccc(S(=O)(=O)Nc2ccc(F)cc2)cc1C(=O)N1c2ccccc2CC1C (stereo not drawn) [I-544, N-(4-fluorophenyl)-4-methyl-3-(2-methylindoline-1-carbonyl)benzenesulfonamide] as the molecule, how does the “% Inhibition of Apyrase” value read?
**A.** 54%

**Q.** How did the “% Inhibition of Apyrase” value turn out when O=C(Nc1ccc(F)c(Cl)c1)c1cccc(S(=O)(=O)Nc2ccc(F)cc2)c1 [I-450, N-(3-chloro-4-fluorophenyl)-3-(N-(4-fluorophenyl)sulfamoyl)benzamide] was run?
**A.** 61%

**Q.** O=C(Nc1cccc(S(=O)(=O)Nc2cccc(Cl)c2)c1)c1ccc(Br)s1 [I-726, 5-bromo-N-(3-(N-(3-chlorophenyl)sulfamoyl)phenyl)thiophene-2-carboxamide] was tested. Which “% Inhibition of Apyrase” value did it give?
**A.** 56%

**Q.** For CN(c1ccc(F)cc1)S(=O)(=O)c1ccc(Cl)c(C(=O)Nc2ccc(F)c(Cl)c2)c1 [I-528, 2-chloro-N-(3-chloro-4-fluorophenyl)-5-(N-(4-fluorophenyl)-N-methylsulfamoyl)benzamide], which “% Inhibition of Apyrase” value is on record?
**A.** 55%

**Q.** With Cc1ccc(N(C)S(=O)(=O)c2cccc(C(=O)N3CCc4ccccc43)c2)cc1 [I-558, 3-(indoline-1-carbonyl)-N-methyl-N-(p-tolyl)benzenesulfonamide] as the molecule, how does the “% Inhibition of Apyrase” value read?
**A.** 52%

**Q.** Which “% Inhibition of Apyrase” value does the source give for COc1ccc(N(C)S(=O)(=O)c2cccc(C(=O)Nc3ccc(OC)c(Cl)c3)c2)cc1 [I-546, N-(3-chloro-4-methoxyphenyl)-3-(N-(4-methoxyphenyl)-N-methylsulfamoyl)benzamide] here?
**A.** 53%

**Q.** With CC1Cc2ccccc2N1S(=O)(=O)c1cccc(C(=O)Nc2ccccc2OC(F)(F)F)c1 (stereo not drawn) [I-476, 3-((2-methylindolin-1-yl)sulfonyl)-N-(2-(trifluoromethoxy)phenyl)benzamide] as the molecule, how does the “% Inhibition of Apyrase” value read?
**A.** 58%

**Q.** How did the “% Inhibition of Apyrase” value turn out when Cc1ccc(NC(=O)c2ccc(Cl)c(S(=O)(=O)N3CCc4ccccc43)c2)cc1 [I-453, 4-chloro-3-(indolin-1-ylsulfonyl)-N-(p-tolyl)benzamide] was run?
**A.** 60%

**Q.** CC1Cc2ccccc2N1C(=O)c1ccc(NS(=O)(=O)c2ccccc2)cc1 (stereo not drawn) [I-911, N-(4-(2-methylindoline-1-carbonyl)phenyl)benzenesulfonamide] was tested. Which “% Inhibition of Apyrase” value did it give?
**A.** 59%

**Q.** Which “% Inhibition of Apyrase” value does the source give for Cc1ccc(NC(=O)c2cccc(S(=O)(=O)N3c4ccccc4CC3C)c2)c(C)c1 (stereo not drawn) [I-547, N-(2,4-dimethylphenyl)-3-((2-methylindolin-1-yl)sulfonyl)benzamide] here?
**A.** 53%

**Q.** Cc1ccc(F)c(NC(=O)c2cccc(S(=O)(=O)Nc3ccc4c(c3)OCO4)c2)c1 [I-252, 3-(N-(benzo[d][1,3]dioxol-5-yl)sulfamoyl)-N-(2-fluoro-5-methylphenyl)benzamide] was tested. Which “% Inhibition of Apyrase” value did it give?
**A.** 62%

**Q.** For O=C(Nc1ccc(OC(F)F)c(Cl)c1)c1ccccc1S(=O)(=O)N1CCCCC1 [I-354, N-(3-chloro-4-(difluoromethoxy)phenyl)-2-(piperidin-1-ylsulfonyl)benzamide], which “% Inhibition of Apyrase” value is on record?
**A.** 43%

**Q.** With Cc1cc(S(=O)(=O)Nc2ccc(C(=O)N3c4ccccc4CC3C)cc2)ccc1F (stereo not drawn) [I-909, 4-fluoro-3-methyl-N-(4-(2-methylindoline-1-carbonyl)phenyl)benzenesulfonamide] as the molecule, how does the “% Inhibition of Apyrase” value read?
**A.** 60%

**Q.** For COc1ccccc1N(C)S(=O)(=O)c1ccc(C(=O)N2CCc3ccc([N+](=O)[O-])cc32)cc1 [I-869, N-(2-methoxyphenyl)-N-methyl-4-(6-nitroindoline-1-carbonyl)benzenesulfonamide], which “% Inhibition of Apyrase” value is on record?
**A.** 57%

**Q.** Which “% Inhibition of Apyrase” value does the source give for Cn1nc(C(=O)Nc2cccc(S(=O)(=O)Nc3cccc(C(F)(F)F)c3)c2)c2ccccc2c1=O [I-750, 3-methyl-4-oxo-N-(3-(N-(3-(trifluoromethyl)phenyl)sulfamoyl)phenyl)-3,4-dihydrophthalazine-1-carboxamide] here?
**A.** 41%

**Q.** How did the “% Inhibition of Apyrase” value turn out when Cc1cc(NC(=O)c2cccc(NS(=O)(=O)c3ccc4c(c3)OCCO4)c2)no1 [I-628, 3-((2,3-dihydrobenzo[b][1,4]dioxine)-6-sulfonamido)-N-(5-methylisoxazol-3-yl)benzamide] was run?
**A.** 68%

**Q.** With NC(=O)c1cc(NC(=O)c2cccc(NS(=O)(=O)c3ccc4c(c3)OCCO4)c2)ccc1Cl [I-325, N-(3-carbamoyl-4-chlorophenyl)-3-((2,3-dihydrobenzo[b][1,4]dioxine)-6-sulfonamido)benzamide] as the molecule, how does the “% Inhibition of Apyrase” value read?
**A.** 34%

**Q.** How did the “% Inhibition of Apyrase” value turn out when COc1ccccc1NS(=O)(=O)c1cccc(NC(=O)c2ccc(C)s2)c1 [I-761, N-(3-(N-(2-methoxyphenyl)sulfamoyl)phenyl)-5-methylthiophene-2-carboxamide] was run?
**A.** 17%

**Q.** How did the “% Inhibition of Apyrase” value turn out when CN(c1ccccc1)S(=O)(=O)c1ccccc1C(=O)Nc1ccc(Cl)cc1F [I-355, N-(4-chloro-2-fluorophenyl)-2-(N-methyl-N-phenylsulfamoyl)benzamide] was run?
**A.** 43%

**Q.** With Cc1ccc(C)c(S(=O)(=O)Nc2cccc(C(=O)Nc3cnccn3)c2)c1 [I-669, 3-((2,5-dimethylphenyl)sulfonamido)-N-(pyrazin-2-yl)benzamide] as the molecule, how does the “% Inhibition of Apyrase” value read?
**A.** 7%

**Q.** For C#Cc1cccc(NC(=O)c2cccc(S(=O)(=O)Nc3ccc(Cl)cc3)c2)c1 [I-237, 3-(N-(4-chlorophenyl)sulfamoyl)-N-(3-ethynylphenyl)benzamide], which “% Inhibition of Apyrase” value is on record?
**A.** 76%

**Q.** With COc1ccc(NS(=O)(=O)c2cccc(NC(=O)c3cc4c(s3)CCC4)c2)cc1 [I-742, N-(3-(N-(4-methoxyphenyl)sulfamoyl)phenyl)-5,6-dihydro-4H-cyclopenta[b]thiophene-2-carboxamide] as the molecule, how does the “% Inhibition of Apyrase” value read?
**A.** 50%

**Q.** How did the “% Inhibition of Apyrase” value turn out when CC1Cc2ccccc2N1S(=O)(=O)c1cccc(C(=O)Nc2cccc3ncccc23)c1 (stereo not drawn) [I-602, 3-((2-methylindolin-1-yl)sulfonyl)-N-(quinolin-5-yl)benzamide] was run?
**A.** 28%

**Q.** How did the “% Inhibition of Apyrase” value turn out when COc1ccc([N+](=O)[O-])cc1NC(=O)c1cccc(S(=O)(=O)N2c3ccccc3CC2C)c1 (stereo not drawn) [I-271, N-(2-methoxy-5-nitrophenyl)-3-((2-methylindolin-1-yl)sulfonyl)benzamide] was run?
**A.** 56%

**Q.** With Cc1cccc(NC(=O)c2ccc(NS(=O)(=O)c3ccc4c(c3)OCCO4)cc2)c1 [I-949, 4-((2,3-dihydrobenzo[b][1,4]dioxine)-6-sulfonamido)-N-(m-tolyl)benzamide] as the molecule, how does the “% Inhibition of Apyrase” value read?
**A.** 42%

**Q.** How did the “% Inhibition of Apyrase” value turn out when O=C(Nc1cccc2cccnc12)c1cccc(NS(=O)(=O)c2cccs2)c1 [I-630, N-(quinolin-8-yl)-3-(thiophene-2-sulfonamido)benzamide] was run?
**A.** 66%

**Q.** For O=C(Nc1nc2ccccc2[nH]1)c1cccc(NS(=O)(=O)c2ccc3c(c2)OCCO3)c1 [I-656, N-(1H-benzo[d]imidazol-2-yl)-3-((2,3-dihydrobenzo[b][1,4]dioxine)-6-sulfonamido)benzamide], which “% Inhibition of Apyrase” value is on record?
**A.** 34%

**Q.** Which “% Inhibition of Apyrase” value does the source give for COc1ccc(NC(=O)c2cccc(S(=O)(=O)Nc3ccc(Br)cc3)c2)cn1 [I-280, 3-(N-(4-bromophenyl)sulfamoyl)-N-(6-methoxypyridin-3-yl)benzamide] here?
**A.** 40%

**Q.** Which “% Inhibition of Apyrase” value does the source give for COc1ccc(NC(=O)c2cccc(S(=O)(=O)Nc3ccc4c(c3)OCO4)c2)cc1Cl [I-882, 3-(N-(benzo[d][1,3]dioxol-5-yl)sulfamoyl)-N-(3-chloro-4-methoxyphenyl)benzamide] here?
**A.** 53%

**Q.** O=C(Nc1ccc(OC(F)F)cc1)c1cccc(S(=O)(=O)Nc2ccc3c(c2)OCO3)c1 [I-243, 3-(N-(benzo[d][1,3]dioxol-5-yl)sulfamoyl)-N-(4-(difluoromethoxy)phenyl)benzamide] was tested. Which “% Inhibition of Apyrase” value did it give?
**A.** 69%

**Q.** How did the “% Inhibition of Apyrase” value turn out when O=C(Nc1ccc(S(=O)(=O)N2CCCC2)cc1)c1ccccc1NS(=O)(=O)c1cccc(C(F)(F)F)c1 [I-373, N-(4-(pyrrolidin-1-ylsulfonyl)phenyl)-2-((3-(trifluoromethyl)phenyl)sulfonamido) benzamide] was run?
**A.** 71%

**Q.** How did the “% Inhibition of Apyrase” value turn out when O=C(Nc1cccc(F)c1)c1ccc(S(=O)(=O)Nc2ccc(Cl)cc2)cc1 [I-223, 4-(N-(4-chlorophenyl)sulfamoyl)-N-(3-fluorophenyl)benzamide] was run?
**A.** 74%

**Q.** C[S+]([O-])c1ccc(C(=O)Nc2cccc(S(=O)(=O)Nc3ccc(Br)cc3)c2)cc1 (stereo not drawn) [I-334, N-(3-(N-(4-bromophenyl)sulfamoyl)phenyl)-4-(methylsulfinyl)benzamide] was tested. Which “% Inhibition of Apyrase” value did it give?
**A.** 40%

**Q.** Which “% Inhibition of Apyrase” value does the source give for O=C(NCCCN1CCOCC1)c1cccc(S(=O)(=O)Nc2ccc(Br)cc2)c1 [I-284, 3-(N-(4-bromophenyl)sulfamoyl)-N-(3-morpholinopropyl)benzamide] here?
**A.** 27%
